Assay [1] has as its system MT4. The assay is described as follows: Tested against HIV-1 induced cytopathic effect in MT-4 cells on LAV-1 strain. It is filed as functional, Homo sapiens.
For assay [2], the system named is MT4. The assay is described as follows: Tested against HIV-1 induced cytopathic effect in MT-4 cells on KK-1AIDS (strain clinically isolated from an AIDS patient). It is filed as functional, Homo sapiens. Background: Damage to the host cells serves as the signal in cytopathic effect assays.
Assay [3] is described as follows: Tested for anticoagulation effect by Zuchker's activated partial thromboplastin time (APTT) method. It counts as functional.
Assay [4] relates to MT4. The experiment in a line: Tested for appearance of MT-4 cell toxicity after 5 days of incubation. It is filed as functional. Conditions: Homo sapiens, MT4, 120 h; read-out: TD50 (the source's name).
Assay [5] relates to Human immunodeficiency virus 1. The assay is described as follows: Tested against HIV-1 replication of KK-1AIDS strain in peripheral blood mononuclear cells (value obtained in the presence of 20% FCS). It is filed as functional, organism-based.
The subject of assay [6] is MT4. The assay is described as follows: (§1) Tested for cytopathic effect caused by KK-1AIDS strain in MT-4 cells in the presence of human serum. It counts as functional, cell-based.
A further assay has as its system MOLT-4. The assay is described as follows: Tested for the suppressive effect on giant cell formation in MOLT-4 and MOLT-4/HIV LAV-1 cells (value obtained in the presence of 10% FCS). It is filed as functional, cell-based. To be noted: Homo sapiens.
In assay [7] the test system is MT4. The experiment in a line: (§2) Tested for cytopathic effect caused by LAV-1 strain in MT-4 cells in the presence of human serum. It is filed as functional, cell-based.
Assay [8] in a line: as §1. It is filed as functional, cell-based. To be noted: MT4, Serum.
A short description of assay [9]: as §2. To be noted: MT4, Serum. It is filed as functional, cell-based.

Molecules are shown by their SMILES.

For the compound `O=S(=O)([O-])OC[C@@H]1O[C@@H]2O[C@H]3[C@H](OS(=O)(=O)[O-])[C@H](O)[C@@H](O[C@H]4[C@H](OS(=O)(=O)[O-])[C@H](O)[C@@H](O[C@H]5[C@H](OS(=O)(=O)[O-])[C@H](O)[C@@H](O[C@H]6[C@H](OS(=O)(=O)[O-])[C@H](O)[C@@H](O[C@H]7[C@H](OS(=O)(=O)[O-])[C@H](O)C(O[C@H]8[C@H](OS(=O)(=O)[O-])[C@H](O)C(O[C@H]1[C@H](OS(=O)(=O)[O-])[C@@H]2O)O[C@H]8COS(=O)(=O)[O-])O[C@H]7COS(=O)(=O)[O-])O[C@H]6COS(=O)(=O)[O-])O[C@H]5COS(=O)(=O)[O-])O[C@H]4COS(=O)(=O)[O-])O[C@H]3COS(=O)(=O)[O-].[K+].[K+].[K+].[K+].[K+].[K+].[K+].[K+].[K+].[K+].[K+].[K+].[K+].[K+]`, the results for the IC100 with MT4 [1] and with MT4 [2] were 31.26 µg/mL and 125 µg/mL, respectively. The compound also returned an APTT in assay [3] of 2.8 µg/mL. Further, in the assay with MT4 [4], the CC50 was above 1000 µg/mL.

Take `O=S(=O)([O-])OCC1O[C@H]2O[C@@H]3C(CSCc4ccccc4)O[C@H](O[C@@H]4C(COS(=O)(=O)[O-])O[C@H](O[C@@H]5C(COS(=O)(=O)[O-])O[C@@H](O[C@@H]6C(CSCc7ccccc7)O[C@H](O[C@@H]7C(COS(=O)(=O)[O-])O[C@H](O[C@@H]8C(CSCc9ccccc9)O[C@H](O[C@H]1C(O)C2OS(=O)(=O)[O-])C(OS(=O)(=O)[O-])C8OS(=O)(=O)[O-])C(OS(=O)(=O)[O-])C7OS(=O)(=O)[O-])C(OS(=O)(=O)[O-])C6OS(=O)(=O)[O-])C(O)C5OS(=O)(=O)[O-])C(OS(=O)(=O)[O-])C4OS(=O)(=O)[O-])C(OS(=O)(=O)[O-])C3OS(=O)(=O)[O-].[K+].[K+].[K+].[K+].[K+].[K+].[K+].[K+].[K+].[K+].[K+].[K+].[K+].[K+].[K+].[K+]` (some centres undefined): the IC100 in the assay on MT4 [1] was 0.98 µg/mL; in the assay on MT4 [2], 1.95 µg/mL. For the same compound, the IC50 (in general, the concentration needed to halve the response being measured) is 6.5 µg/mL in [5], 11 µg/mL with MT4 [6], 2 µg/mL with MOLT-4 and 4.5 µg/mL in the assay with MT4 [7]. In assay [3], this compound returned an APTT of 7.1 µg/mL. In the assay with MT4 [4], the CC50 is above 1000 µg/mL.

With `O=S(=O)([O-])OCC1O[C@H]2O[C@@H]3C(COS(=O)(=O)[O-])O[C@H](O[C@@H]4C(COS(=O)(=O)[O-])O[C@H](O[C@@H]5C(COS(=O)(=O)[O-])O[C@H](O[C@@H]6C(COS(=O)(=O)[O-])O[C@@H](O[C@@H]7C(COS(=O)(=O)[O-])O[C@H](O[C@@H]8C(COS(=O)(=O)[O-])O[C@H](O[C@H]1C(OS(=O)(=O)[O-])C2O)C(OCc1ccccc1)C8OS(=O)(=O)[O-])C(O)C7OS(=O)(=O)[O-])C(OCc1ccccc1)C6OS(=O)(=O)[O-])C(OS(=O)(=O)[O-])C5OS(=O)(=O)[O-])C(OCc1ccccc1)C4OS(=O)(=O)[O-])C(OS(=O)(=O)[O-])C3OS(=O)(=O)[O-].[Na+].[Na+].[Na+].[Na+].[Na+].[Na+].[Na+].[Na+].[Na+].[Na+].[Na+].[Na+].[Na+].[Na+].[Na+].[Na+]` (some centres undefined), the IC100 in the assay on MT4 [1] turned out to be 1.95 µg/mL; with MT4 [2], 3.9 µg/mL. The compound further yielded an APTT in [3] of 4 µg/mL. Moreover, the CC50 in the assay with MT4 [4] is above 1000 µg/mL.

As to `O=S(=O)([O-])OC[C@@H]1O[C@@H]2O[C@H]3[C@H](OS(=O)(=O)[O-])[C@H](OCc4ccccc4)[C@@H](O[C@H]4[C@H](OS(=O)(=O)[O-])[C@H](OCc5ccccc5)[C@@H](O[C@H]5[C@H](OS(=O)(=O)[O-])[C@H](OCc6ccccc6)[C@@H](O[C@H]6[C@H](OS(=O)(=O)[O-])[C@H](OCc7ccccc7)[C@@H](O[C@H]7[C@H](OS(=O)(=O)[O-])[C@H](OCc8ccccc8)C(O[C@H]8[C@H](OS(=O)(=O)[O-])[C@H](OCc9ccccc9)C(O[C@H]1[C@H](OS(=O)(=O)[O-])[C@@H]2OCc1ccccc1)O[C@H]8COS(=O)(=O)[O-])O[C@H]7COS(=O)(=O)[O-])O[C@H]6COS(=O)(=O)[O-])O[C@H]5COS(=O)(=O)[O-])O[C@H]4COS(=O)(=O)[O-])O[C@H]3COS(=O)(=O)[O-].[Na+].[Na+].[Na+].[Na+].[Na+].[Na+].[Na+].[Na+].[Na+].[Na+].[Na+].[Na+].[Na+].[Na+]`, the IC100 with MT4 [1] and with MT4 [2] was 0.98 µg/mL each time. The IC50 in assay [5] came out at 3.6 µg/mL; in [8], 5.8 µg/mL; with MOLT-4, 0.46 µg/mL; in assay [9], 0.87 µg/mL. This compound yielded an APTT in assay [3] of 14.8 µg/mL. Moreover, the CC50 in the assay on MT4 [4] is 1000 µg/mL.

The record behind these values is ChEMBL document CHEMBL1126710, “A new candidate for an anti-HIV-1 agent: modified cyclodextrin sulfate (mCDS71)” (J Med Chem, 1993).
